Data: PMC10926604, “Discovery of a novel small molecule as CD47/SIRPα and PD-1/PD-L1 dual inhibitor for cancer immunotherapy” (Cell Communication and Signaling : CCS, 2024)

How the values were obtained:
[1] = target: T1, murine SIRPα (mSIRPα) (Mus musculus, UniProt P97797); assay: MST binding assay, murine SIRPα; details: SIRPα-IgV-His, read-out: dissociation constant (KD) for murine SIRPα
T1 construct: SIPRα-IgV-His (human: SIA-H5225, mouse: SIA-M52H4, ACRO Biosystems); His; purchased ACRO Biosystems SIA-M52H4
T1 sequence (P97797 32-137 limits assumed): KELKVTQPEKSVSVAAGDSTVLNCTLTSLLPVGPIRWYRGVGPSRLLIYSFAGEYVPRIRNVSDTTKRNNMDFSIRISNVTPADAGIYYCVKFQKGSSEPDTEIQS
Procedure: SIPRα-IgV-His (human: SIA-H5225, mouse: SIA-M52H4, ACRO Biosystems) and PD-L1-IgV-His (human: 10,084-H08H, mouse: 50,010-M08H, Sino Biological) proteins were labeled with Red-NHS647 dye (NT-MO-L001, NanoTemper) for subsequent experiments. SMC18 (C385-0664, ChemDiv) was serially diluted using PBST (from 0.0191 μM to 200 μM) and mixed with the labeled proteins. The samples were then aspirated using standard capillaries and assayed by MST instrument (Monolith NT.115, NanoTemper), and the results were analyzed using the analytical software Monolith NT.115 system to calculate the dissociation constant (KD) values.

[2] = system: SIRPα; assay: Tyrosine phosphorylation assay of SIRPα, BMDM/MC38 co-culture; assay type: cell-based, mouse; details: 50 μM, BMDMs co-cultured with MC38 cells, 30 min, Western blotting
Procedure: Murine bone marrow-derived macrophages were subjected to induction using murine GM-CSF for 7 days. Subsequently, the induced macrophages (2 × 10^6 cells/well) were co-cultured with MC38 cells (1 × 10^7 cells/well). The co-cultures were treated with PBS (negative control), SMC18 (50 μM), or anti-mouse CD47 (clone miap301, 20 μg/mL, positive control) and incubated at 37℃ for 30 min. Following this, cells were washed and lysed. Finally, cell lysates were collected for immunoprecipitation and Western blotting.
In brief, the protein samples were separated by SDS-PAGE using a 4% stacking gel and an 8 ~ 10% main gel and transferred to a polyvinylidene difluoride (PVDF) membrane. The membrane was blocked with 5% milk at room temperature for 1–2 h and then incubated with anti-SIRPα (dilution 1:1000, AB8120, Abcam), anti-PD-1 (dilution 1:200, ab52587, Abcam) or anti-Phosphotyrosine (dilution 1:1000, 05–321, Millipore) dissolved in primary antibody dilution buffer overnight at 4 °C. Then the membrane was washed and incubated with appropriate HRP-coupled goat anti-rabbit IgG (D110058, Sangon Biotech) and HRP-coupled goat anti-mouse IgG (D110087, Sangon Biotech) for 1–2 h at room temperature. Finally, the membranes were exposed using an enhanced chemiluminescence (ECL) detection kit (P1030, Applygen). Results were analyzed by ImageJ software (NIH, Bethesda, MD, United States).

[3] = system: GFP+ MC38 cells phagocytosed by BMDMs; assay: Phagocytosis assay, BMDMs with GFP+ MC38 cells; assay type: cell-based, mouse; details: 50 μM
Procedure: Bone marrow-derived macrophage cells (BMDMs) from C57BL/6N mice were isolated and induced with 20 ng/mL of mouse granulocyte–macrophage colony-stimulating factor (GM-CSF, 315–03, Peprotech) for 7 days, with regular medium changes and cytokine replenishment during cell induction. The cells were then harvested for subsequent experiments. Subsequently, the cells were treated with SMC18 at a concentration of 50 μΜ. The anti-CD47 antibody (clone miap301, 16–0471-81, Invitrogen) was employed as a positive control with 20 µg/mL. Phagocytosis was measured by the co-culture of macrophages with green fluorescent protein (GFP^+) tumor cells (GFP^+ MC38 and GFP^+ B16-OVA cells) at a ratio of 1:4 in serum-free medium at 37 °C for 4 h. The cells were harvested and identified by flow cytometry using anti-F4/80 antibody (BM8, 17–4801-82, eBioscience). The phagocytosis rate was calculated as the percentage F4/80^+GFP^+ cells relative to the total number of total F4/80^+ cells. For confocal microscopy detection, BMDMs were labelled with DiR dye (R-22070, Beyotime) at a final concentration of 200 μM, followed by a 30-min staining period. After washing with PBS three times, the cells were cultured with DMEM medium devoid of serum for 2 h. Subsequently, MC38-EGFP cells were seeded onto BMDMs at a density of 4 × 10^6 cells per well. […]

[4] = system: MC38 tumor-bearing mice; assay: Ex vivo flow cytometry of immune cells from MC38 tumor-bearing mice; assay type: in vivo, mouse; details: SMC18 treatment vs NS
Procedure: At the end of treatment, the tumor-bearing mice were euthanized, and the tumor tissues were removed, minced and enzymatically digested with DNAase I (DN25, Sigma) and collagenase IV (17,104–019, Invitrogen) at 37 °C for 40 min. The digested tumor suspensions were filtered by nylon filter. Immune cell infiltration in the tumor tissue was analyzed by flow cytometry. For the detection of CD8^+ T cells at the tumor site, single-cell suspensions were stained with anti-mouse CD45-FITC (30-F11, eBioscience), anti-mouse CD3-PerCP-eFluor710 (17A2, eBioscience), anti-mouse CD8α-PE (53–6.7, eBioscience) or isotype control. To detect macrophage infiltration at tumor sites, single cell suspensions were stained with anti-mouse CD45-FITC (30-F11, eBioscience), anti-mouse CD11b-eFluor450 (M1/70, eBioscience), anti-mouse F4/80-PerCP-Cyanine5.5 (BM8, eBioscience), anti-mouse CD11c-APC (M418, eBioscience), anti-mouse CD206-PE (MR6F3, eBioscience) or isotype control.
To assess cytokine secretion from tumor sites and immune organs, spleens, draining lymph nodes and tumors from mice were dissected and ground into single cell suspensions, followed by filtration and incubation with […] transport inhibitors, PMA (20 ng/mL, 16561–29-8, Sigma) and ionomycin (1 µM, I0634, Sigma) for 4 h in a 37 °C incubator. The single cell suspensions of draining lymph nodes and spleens were stained with anti-mouse CD3-PerCP-eFluor710 (17A2, eBioscience), anti-mouse CD8α-PE (53–6.7, eBioscience), anti-mouse IFN-γ-APC (XMG1.2, eBioscience) or isotype control. Tumor cells were stained with anti-mouse CD45-FITC (30-F11, eBioscience), anti-mouse CD3-PerCP-eFluor710 (17A2, eBioscience), anti-mouse CD8α-PE (53–6.7, eBioscience), anti-mouse IFN-γ-APC (XMG1.2, eBioscience) or isotype control. Finally, the samples were detected by flow cytometry.

For Cc1cc(C)cc(NS(=O)(=O)c2ccc3[nH]cc(C(=O)NCCc4ccccc4)c(=O)c3c2)c1 [SMC18], the Kd [1] was 2490 ± 1900 nM, the “tyrosine phosphorylation levels of SIRPα” value [2] was “significantly suppressed” and the “phagocytosis of MC38 by BMDMs (flow cytometry)” value ([3]; 4 h) was “significantly increased”. The “macrophage phagocytosis of MC38 cells (confocal)” value ([3]; DiR-labelled BMDMs, MC38-EGFP, vs control group) was “significantly enhanced”, the “amount of CD8+ T cell secreting IFN-γ in the tumor tissue” value ([4]; MC38 tumor) was “significantly increased” and the “infiltration of CD8+ T cells in the tumor tissue” value ([4]; MC38 tumor) was “significantly increased”. For the same molecule, the “amount of CD8+ T secreting IFN-γ in the draining lymph nodes” value [4] was “increased”, the “amount of CD8+ T secreting IFN-γ in the spleen” value [4] was “increased” and the “proportion of M1-type macrophages in tumor” value [4] was “increased”.
